Records with an inconclusive call do not appear. The source made the active and inactive calls.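 How the source made its calls: active means EC50 no more than tenfold above the top concentration tested, with valid fit and all samples agreeing; inconclusive means flat fit at 30 to 70% inhibition, poor fit, or split samples; inactive means EC50 beyond tenfold the top concentration tested.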

This assay concerns BJeLR fibroblast viability, Alamar Blue fluorescence, 48 h. The assay can be described thus: cytotoxicity toward RAS-transformed BJeLR fibroblasts, dose response, cell-based, alamar blue fluorescence, 48 h, cherrypicked samples (AID 2610).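 Further: BJ fibroblasts with hTERT plus SV40 large and small T and HRAS V12; EC50 for loss of viable cells so potency reflects cytotoxic compounds.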
As usually defined, the EC50 is the concentration needed to bring the measured effect to its halfway point. For `Cc1ccc(/C=N/NC(=O)c2cc(-c3ccncc3)nc3ccccc23)o1`, the EC50 was 685 nM. In the case of `CCOc1ccc(Nc2nc(N)nc(CCl)n2)cc1` it was 391 nM; in that of `O=C(Oc1ccc(-c2nc(-c3ccccn3)no2)cc1)c1ccccc1`, > 13300 nM (inactive); in that of `N#Cc1c(NC(=O)/C=C/c2ccco2)sc2c1CCCC2`, less than 104 nM.

Take `Nc1ncnc2c1ccn2[C@@H]1O[C@H](CO)[C@@H](O)[C@H]1O`: the EC50 was less than 104 nM.

For the compound `O=C(/C=C/c1ccc(F)cc1)NNC(=O)CCN1CCN(Cc2ccccc2)CC1`, the EC50 was > 13300 nM (inactive). Consider `O=C(NCc1cccnc1)c1ccc(NC(=O)c2ccc([N+](=O)[O-])cc2)cc1`, for which the EC50 was 1420 nM.

Take `Cc1cccc(N2CCN(C(=S)Nc3ccc4nc(N5CCN(C)CC5)cc(C)c4c3)CC2)c1C`: the EC50 is 864 nM. For `O=C(Nc1ccc([N+](=O)[O-])cc1)Nc1ccon1`, the EC50 is 380 nM. In the case of `O=C1N(c2ccccc2)C[C@@H]2C[C@@H](c3cc4ccccc4o3)N3CCC[C@@]123` it was 610 nM. Take `CCN1/C(=C/c2ccc3ccccc3[n+]2CC)C=Cc2ccccc21`: the EC50 was 726 nM. Turning to `O=C(Cc1ccc([N+](=O)[O-])cc1)N/N=C/c1ccc([N+](=O)[O-])o1`, the EC50 was 3540 nM. In the case of `CCc1ccc(CCC(=O)Nc2ncc(Cc3ccccc3Cl)s2)o1` it was 1060 nM. In the case of `CCn1cc(C(=O)NCc2ccco2)c(=O)c2cc(S(=O)(=O)N3CC(C)CC(C)C3)ccc21` (centres undefined) it was > 13300 nM (inactive).

Take `COc1cc(C2CC(c3cccs3)=NN2C(=O)CCl)ccc1OC(F)F` (centres undefined): the EC50 was 271 nM. In the case of `CCCN1C=CC(=C2C(=O)c3ccccc3C2=O)C=C1` it was > 13300 nM (inactive); in that of `COc1cccc(CSc2nc3ccccc3cc2C=O)c1`, 111 nM; in that of `CCNC(=S)NNC(=O)c1cc(-c2ccc(OCC)cc2)nc2ccccc12`, > 13300 nM (inactive).

On to `ClC1=C(Cl)C(Cl)=C(Cl)C1=C/C=C/c1ccccc1`, for which the EC50 was 1040 nM.

As to `COC(=O)C1=C(C)N(Cc2ccccc2)C(=NCc2cccc(C(F)(F)F)c2)N[C@H]1c1cccc(F)c1`, the EC50 is > 13300 nM (inactive). In the case of `Oc1ccc(/C=N/Nc2nccnc2Cl)c(O)c1` it was 6750 nM; in that of `Cc1ccc(NC(=O)[C@H](Cc2c[nH]c3ccccc23)NC(=O)[C@@H]2Cc3ccccc3CN2)c(C)c1`, > 13300 nM (inactive); in that of `FC(F)(F)c1nnc2c(Sc3ccccc3)nc3ccc(Cl)cc3n12`, 577 nM.

Consider `O=C(c1cccs1)c1no[n+]([O-])c1C(=O)c1cccs1`, for which the EC50 was 2990 nM.

For the compound `COc1ccc2c(c1)sc(N)[n+]2Cc1cc(C)cc2cccnc12`, the EC50 was 266 nM. In the case of `COc1ccc(N/N=C(/N=Nc2nc(C)cc(=O)[nH]2)c2ccccc2)cc1` it was 446 nM. Turning to `c1cnc2c(c1)ccc1cccnc12`, the EC50 is 5560 nM. In the case of `C=C1C(=O)O[C@@H]2C[C@@H](C)[C@H]3C=CC(=O)[C@]3(O)C[C@@H]12` it was 4550 nM; in that of `COc1ccc(S(=O)(=O)N2c3ccc(F)cc3CCC2C)cc1` (centres undefined), less than 104 nM.

`CCCCCN=Cc1c(C)[nH]n(-c2nc3ccccc3s2)c1=O`: the EC50 was > 13300 nM (inactive).

Take `Cc1ccc2[nH]c3c(c2c1)CCCC3NC(=O)CCl` (centres undefined): the EC50 was 2270 nM. In the case of `CC[C@@]1(O)C(=O)OCc2c1cc1n(c2=O)Cc2cc3c(N)cccc3nc2-1` it was less than 30.7 nM. In the case of `COc1ccccc1/C=C1\SC(=S)N(CCC(=O)NCCCn2ccnc2)C1=O` it was > 13300 nM (inactive). For `O=C(CCl)N=c1sccn1Cc1ccccc1Cl`, the EC50 was less than 88.2 nM.

As to `Clc1ccccc1Nc1nnc(-c2ccncc2)s1`, the EC50 was > 13300 nM (inactive). Consider `Cn1c(/C=C/c2ccc([N+](=O)[O-])o2)nc2ccccc2c1=O`, for which the EC50 was 544 nM. In the case of `Nc1nc(CCl)nc(Nc2ccc3ccccc3c2)n1` it was 192 nM. In the case of `COc1ccc2nc(C)cc(N/N=C/c3ccc(F)cc3)c2c1` it was 292 nM.

Regarding `COc1cc([C@H]2c3[nH]c4ccccc4c3C[C@H]3C(=O)N4[C@@H](c5cc(OC)c(OC)c(OC)c5)c5[nH]c6ccccc6c5C[C@H]4C(=O)N23)cc(OC)c1OC`, the EC50 is > 13300 nM (inactive). In the case of `COC(=O)C[C@](O)(CCCC(C)(C)O)C(=O)O[C@@H]1C(OC)=C[C@]23CCCN2CCc2cc4c(cc2[C@H]13)OCO4` it was less than 34.7 nM; in that of `COc1ccccc1/C=C1\SC(=O)N(CCC(=O)NCCCn2ccnc2)C1=O`, > 13300 nM (inactive); in that of `CC1=CC(=O)C=C(C)C1=NOS(=O)(=O)c1ccccc1`, 3010 nM. In the case of `Cc1nn(-c2ccccc2)c(Cl)c1CN(C(=O)CCl)c1ccc(Cl)cc1` it was 521 nM. In the case of `COC(=O)c1[nH]c2c(c1C)C(=O)CC(c1cccs1)C2` (centres undefined) it was 152 nM; in that of `CCSc1cc(C2C(C#N)=C(N)Oc3n[nH]c(C)c32)c(C)o1` (centres undefined), 11500 nM. Take `Cc1ccc(C2=NN(C(=O)CCl)C(c3ccco3)C2)o1` (centres undefined): the EC50 is 1600 nM. For the compound `O=C(Nc1nc2ccccc2[nH]1)c1ccccc1F`, the EC50 was > 13300 nM (inactive). In the case of `CCN(CC)c1ccc(/C=N/NC(=O)c2ccc3nc[nH]c3c2)c(O)c1` it was 1530 nM; in that of `COc1cc(C2c3cc4c(cc3C(OC3OC5COC(c6cccs6)OC5C(O)C3O)C3COC(=O)C23)OCO4)cc(OC)c1O` (centres undefined), 129 nM. In the case of `CCN(CC)CCN1C(=O)/C(=C\c2ccc(Cl)c([N+](=O)[O-])c2)SC1=Nc1ccc(OC)cc1` it was 563 nM; in that of `COc1ccc(OC)c2c1C(=O)C(Cl)=C(Cl)C2=O`, 2980 nM. In the case of `O=S(=O)(c1ccc2c(c1)C(=NO)c1cc(S(=O)(=O)N3CCCCC3)ccc1-2)N1CCCCC1` it was less than 277 nM; in that of `COc1ccccc1C1C2=C(COC2=O)Nc2cc3c(cc21)OCO3` (centres undefined), less than 104 nM; in that of `Cc1ccc(C(C)C)c(OCc2ccc(C(=O)N/N=C/c3cccc(O)c3O)cc2)c1`, 496 nM. Consider `Cc1cccc(NS(=O)(=O)c2ccc(-c3cnc(C4CC4)o3)cc2)c1C`, for which the EC50 is less than 104 nM. In the case of `CCN1C(=O)C(=Cc2cccc(OC)c2Oc2ccc([N+](=O)[O-])cc2[N+](=O)[O-])SC1=S` it was 1050 nM; in that of `O=C(CCCCCCCCCCC(=O)NCc1cccnc1)NCc1cccnc1`, > 13300 nM (inactive). Turning to `CCN(CC)c1ccc(/C=N/NC(=O)c2nnn(-c3nonc3N)c2C(C)C)c(O)c1`, the EC50 was 565 nM. For the compound `O=C1C=C(c2cccs2)C[C@H](c2ccccc2)[C@H]1n1nnc([N+](=O)[O-])n1`, the EC50 was less than 104 nM. In the case of `Cc1occc1C(=O)N/N=C/c1ccc(-c2ccccc2)cc1` it was > 13300 nM (inactive); in that of `COc1ccc(CCNc2nnc(Sc3nnnn3-c3ccccc3)s2)cc1OC`, 344 nM; in that of `COc1cccc(N2C(N)=NC(N)=NC2(C)C)c1`, > 13300 nM (inactive). `CCOC(=O)/C(=C\c1ccc([N+](=O)[O-])cc1)C(=O)c1cc(C(C)=O)c(Nc2ccccc2)s1`: the EC50 was 958 nM. Regarding `CCN1/C(=C\C=C\C2=[N+](CC)c3ccccc3C2(C)C)C(C)(C)c2ccccc21`, the EC50 is 239 nM.

For the compound `O=C(N/N=C/c1ccc([N+](=O)[O-])o1)c1cc2ccccc2o1`, the EC50 was 7500 nM.

In the case of `O=S(=O)(c1ccc(Cl)cc1)c1snnc1-c1ccccc1`, the EC50 was 594 nM.

`COc1cc(/C=C/c2ccc3cccc(O)c3n2)cc(OC)c1OC`: the EC50 was 3370 nM. For the compound `N#CCc1ccc(NC(=O)/C=C/c2ccc([N+](=O)[O-])o2)cc1`, the EC50 is 1100 nM. In the case of `CCC1=Nc2cc(C(=O)NCc3ccco3)ccc2Sc2ccc(C)cc21` it was less than 104 nM; in that of `Cc1cc(C)c2c(CCl)cc(=O)oc2c1`, 116 nM. In the case of `CCCCCOc1ccc(Br)cc1/C(C)=N/NC1=NCCN1` it was 697 nM; in that of `COc1cc2c(cc1OC)C(c1cc(Br)ccc1F)N(C(=O)CCl)CC2` (centres undefined), 1310 nM; in that of `Cc1ccc(C(=O)Sc2cccccc2=O)cc1`, less than 62.4 nM.

Regarding `O=Cc1cc2ccccc2nc1SCc1ccc(Cl)c(Cl)c1`, the EC50 is less than 104 nM. In the case of `CCN1CCc2c(sc(NC(=O)c3cc4ccccc4cc3OC)c2C(N)=O)C1` it was 588 nM; in that of `Cc1ccc(C(=O)c2cc([N+](=O)[O-])ccc2N2CCCCC2)c(C)c1`, less than 104 nM; in that of `Cc1ccccc1Nc1nc(N)nc(CCl)n1`, 2290 nM.

With `CCOC(=O)C1CCN(S(=O)(=O)c2c(Cl)ccc3nonc23)CC1`, the EC50 is 407 nM.

With `COc1ccc2c(C)nc(Nc3nc(-c4ccccc4)cc(=O)[nH]3)nc2c1`, the EC50 was 1200 nM. In the case of `Cn1ncc2c(O/N=C(\N)c3ccc(C(C)(C)C)cc3)ncnc21` it was 2340 nM; in that of `CCCCCCCCCC[n+]1cccc2c3ccccc3ccc21`, 8030 nM.

With `CCCCN=C[C@]12CCC(O)CC1(O)CCC1[C@@H]2CC[C@]2(C)[C@H](C3C=CC(=O)O3)CCC12O` (some centres undefined), the EC50 was 315 nM. In the case of `Cc1sc2ncnc(N/N=C/c3ccccc3O)c2c1C` it was 3700 nM; in that of `Nc1ccc2c(c1)C(=O)C(=O)c1ccccc1-2`, 1720 nM; in that of `COc1cccc(/C=C2\SC(=S)N(CCCC(=O)N(CCO)c3ccccc3)C2=O)c1`, 2530 nM.

On to `Oc1c(N=Nc2ccccn2)ccc2ccccc12`, for which the EC50 was 241 nM. In the case of `Cc1ccccc1OCC(O)CNC1CCC(NCC(O)COc2ccccc2C)CC1` (centres undefined) it was 582 nM; in that of `COc1cc(OC)cc(C(=O)N[C@H](C(=O)Nc2nc3ccccc3[nH]2)C(C)C)c1`, 324 nM. In the case of `CC(C)Oc1ccccc1C1CC(=O)Nc2cc3c(cc21)OCCO3` (centres undefined) it was 307 nM; in that of `COCCCN=C1NN=C(c2cc(C)n(Cc3ccco3)c2C)CS1`, less than 104 nM; in that of `CCN1/C(=C/c2ccc3cc(C)ccc3[n+]2CC)Sc2ccc3sccc3c21`, less than 104 nM. In the case of `COc1ccccc1C(=O)Nc1nc2ccccc2[nH]1` it was > 13300 nM (inactive); in that of `CC(Oc1ccc(Cl)cc1Cl)c1nc(-c2ccc(NC(=O)c3cccnc3)cc2)no1` (centres undefined), 1580 nM.

Take `COc1cc(OC)c(C2=NOC(C(=O)NCc3cccs3)C2)cc1Cl` (centres undefined): the EC50 was 2320 nM.

The values are drawn from PubChem BioAssay AID2610 (Broad Institute, 2010).
